Experimental data from ChEMBL document CHEMBL5352401, “Novel cudraisoflavone J derivatives as potent neuroprotective agents for the treatment of Parkinson's disease via the activation of Nrf2/HO-1 signaling” (Eur J Med Chem, 2022).
Activity calls are given as the source filed them. The calls are words filed in the database; no cut-off is given here.

Assays:
PC-12 [1] = experiment: Cytotoxicity in rat PC-12 cells assessed as cell viability measured at 10 to 30 uM for 24 hrs by MTT assay; format: functional, cell-based; conditions: dose 10-30 µM
PC-12 [2] = experiment: Neuroprotective activity against 6-OHDA-induced cytotoxicity in rat PC-12 cells at 10 to 30 uM for 4 hrs followed by exposure to 6-OHDA measured after 24 hrs by MTT assay; format: functional, cell-based; conditions: dose 10-30 µM, time 28.0 hrs
PC-12 [3] = experiment: Neuroprotective activity against 6-OHDA-induced cytotoxicity in rat PC-12 cells for 4 hrs followed by exposure to 6-OHDA measured after 24 hrs by MTT assay; format: functional, cell-based; conditions: dose 0.1-30 µM, time 28.0 hrs
PC-12 [4] = experiment: Cytotoxicity in rat PC-12 cells assessed as cell viability incubated for 24 hrs by MTT assay; format: functional, cell-based; conditions: PC-12, 24 h
[5] = Neurotoxicity in rotenone induced at rat PC-12 cells assessed as cell viability at 30 uM pretreated for 4 hrs followed by rotenone addition measured after 24 hrs by MTT assay (reference value: 53.4 +/- 2.6%); format: toxicity, cell-based; conditions: time 28 hrs, read-out: Activity
[6] = Neurotoxicity in rotenone induced at rat PC-12 cells assessed as cell viability pretreated with compound for 4 hrs followed by rotenone addition measured after 24 hrs by MTT assay; format: toxicity, cell-based
Brain = experiment: Antioxidant activity in Fe2+/L-ascorbic acid induced Sprague-Dawley rat brain homogenate assessed as inhibition of lipid peroxide production measured at 100 uM after 60 mins by microplate reader method relative to control; format: functional, tissue-based
PC-12 [7] = experiment: Antiinflammatory activity in 6-OHDA-induced cytotoxicity in rat PC-12 cells assessed as reduction of ROS production pretreated at 10 to 30 uM for 4 hrs followed by 6-OHDA addition treated for 6 hrs measured after 1 hr of H2-DCFDA addition by measuring fluorescence; format: functional, cell-based; conditions: dose 10-30 µM, time 11.0 hrs
PC-12 [8] = experiment: Antiinflammatory activity in rotenone induced cytotoxicity in rat PC-12 cells assessed as reduction of ROS production pretreated at 10 to 30 uM for 4 hrs followed by rotenone addition treated for 6 hrs measured after 1 hr of H2-DCFDA addition by measuring fluorescence; format: functional, cell-based; conditions: dose 10-30 µM, time 11.0 hrs
PC-12 [9] = experiment: Antiinflammatory activity in 6-OHDA-induced cytotoxicity in rat PC-12 cells assessed as reduction of fluorescence signal pretreated at 10 to 30 uM for 4 hrs followed by 6-OHDA addition treated for 6 hrs measured after 1 hr of H2-DCFDA addition by spectrophotometric analysis; format: functional, cell-based; conditions: dose 10-30 µM, time 11.0 hrs
PC-12 [10] = experiment: Antiinflammatory activity in rotenone induced cytotoxicity in rat PC-12 cells assessed as reduction of fluorescence signal pretreated at 10 to 30 uM for 4 hrs followed by rotenone addition treated for 6 hrs measured after 1 hr of H2-DCFDA addition by spectrophotometric analysis; format: functional, cell-based; conditions: dose 10-30 µM, time 11.0 hrs
PC-12 [11] = experiment: Neuroprotective activity in rat PC-12 cells assessed as upregulation of HO-1 expression measured at 10 uM after 3 to 6 hrs by immunoblotting analysis; format: functional, cell-based; conditions: time 3-6 hrs
PC-12 [12] = experiment: Neuroprotective activity in rat PC-12 cells assessed as upregulation of HO-1 expression measured for 6 hrs by immunoblotting analysis; format: functional, cell-based; conditions: dose 1-30 µM
PC-12 [13] = experiment: Neuroprotective activity in rat PC-12 cells assessed as fold increase in upregulation of HO-1 expression measured at 30 uM for 6 hrs by immunoblotting analysis; format: functional
PC-12 [14] = experiment: Cytotoxicity in 6-OHDA induced rat PC-12 cells assessed as cell viability pretreated with ZnPP for 30 mins followed by compound addition at 10 uM for 4 hrs and measured after 24 hrs of […] addition by MTT assay; format: functional, cell-based; conditions: time 28.0 hrs
[15] = biological target: T1, Nuclear factor erythroid 2-related factor 2 (Rattus norvegicus) (UniProt O54968); experiment: Induction of Nrf2 nuclear translocation in rat PC12 cells at 10 uM for 3 hrs by Western blotting analysis; format: cell-based; conditions: PC-12, filed as activator
T1 sequence (whole entry): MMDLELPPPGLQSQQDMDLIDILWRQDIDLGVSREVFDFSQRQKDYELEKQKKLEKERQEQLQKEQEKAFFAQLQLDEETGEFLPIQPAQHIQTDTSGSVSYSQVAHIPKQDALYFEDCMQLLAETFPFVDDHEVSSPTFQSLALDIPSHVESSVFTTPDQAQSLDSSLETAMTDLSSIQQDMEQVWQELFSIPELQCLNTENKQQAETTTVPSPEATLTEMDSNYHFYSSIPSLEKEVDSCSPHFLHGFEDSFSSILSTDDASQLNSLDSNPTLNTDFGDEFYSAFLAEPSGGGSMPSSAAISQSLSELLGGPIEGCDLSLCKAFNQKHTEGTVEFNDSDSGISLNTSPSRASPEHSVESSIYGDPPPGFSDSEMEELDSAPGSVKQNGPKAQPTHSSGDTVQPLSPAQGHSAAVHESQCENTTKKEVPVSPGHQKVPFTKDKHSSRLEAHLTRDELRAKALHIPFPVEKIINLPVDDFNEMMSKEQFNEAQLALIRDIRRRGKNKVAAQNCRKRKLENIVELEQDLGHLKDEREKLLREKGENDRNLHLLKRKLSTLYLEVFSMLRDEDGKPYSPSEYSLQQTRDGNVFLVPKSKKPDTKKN

PC-12 [16] = experiment: Upregulation of HO-1 expression in si-RNA mediated Nrf2 knock down rat PC-12 cells measured by immunoblotting analysis; format: functional, cell-based
[17] = biological target: KEAP1/NRF2 (Rattus norvegicus) (UniProt O54968+P57790); experiment: Inhibition of Nrf2-Keap1 protein-protein interaction in rat PC-12 cells by Western blotting analysis; format: cell-based
[18] = biological target: T1, Nuclear factor erythroid 2-related factor 2 (Rattus norvegicus); experiment: Induction of Nrf2 nuclear translocation in rat PC12 cells assessed as increase in phosphorylation of ERK1 at 10 uM for 2 to 3 hrs by Western blotting analysis; format: cell-based; conditions: PC-12, filed as activator, time 2-3 hrs
[19] = biological target: T1, Nuclear factor erythroid 2-related factor 2 (Rattus norvegicus); experiment: Induction of Nrf2 nuclear translocation in rat PC12 cells assessed as increase in phosphorylation of ERK2 at 10 uM for 2 to 3 hrs by Western blotting analysis; format: cell-based; conditions: PC-12, filed as activator, time 2-3 hrs
[20] = biological target: T1, Nuclear factor erythroid 2-related factor 2 (Rattus norvegicus); experiment: Induction of Nrf2 nuclear translocation in rat PC12 cells assessed as increase in phosphorylation of JNK at 10 uM for 2 to 3 hrs by Western blotting analysis; format: cell-based; conditions: PC-12, filed as activator, time 2-3 hrs
[21] = biological target: T1, Nuclear factor erythroid 2-related factor 2 (Rattus norvegicus); experiment: Induction of Nrf2 nuclear translocation in rat PC12 cells assessed as increase in phosphorylation of AKT at 10 uM for 2 to 3 hrs by Western blotting analysis; format: cell-based; conditions: PC-12, filed as activator, time 2-3 hrs
[22] = biological target: T1, Nuclear factor erythroid 2-related factor 2 (Rattus norvegicus); experiment: Induction of Nrf2 nuclear translocation in rat PC12 cells assessed as change in phosphorylation of p38 MAPK level at 10 uM for 2 to 3 hrs by Western blotting analysis; format: cell-based; conditions: PC-12, time 2-3 hrs
[23] = biological target: T1, Nuclear factor erythroid 2-related factor 2 (Rattus norvegicus); experiment: Induction of Nrf2 nuclear translocation in rat PC12 cells assessed as increase in phosphorylation of ERK1 pretreated with U0126 for 2 hrs followed by compound addition at 10 uM for 2 to 3 hrs by Western blotting analysis; format: cell-based; conditions: PC-12, time 2-3 hrs
[24] = biological target: T1, Nuclear factor erythroid 2-related factor 2 (Rattus norvegicus); experiment: Induction of Nrf2 nuclear translocation in rat PC12 cells assessed as increase in phosphorylation of ERK2 pretreated with U0126 for 2 hrs followed by compound addition at 10 uM for 2 to 3 hrs by Western blotting analysis; format: cell-based; conditions: PC-12, time 2-3 hrs
[25] = biological target: T1, Nuclear factor erythroid 2-related factor 2 (Rattus norvegicus); experiment: Induction of Nrf2 nuclear translocation in rat PC12 cells assessed as increase in phosphorylation of JNK pretreated with SP600125 for 2 hrs followed by compound addition at 10 uM for 2 to 3 hrs by Western blotting analysis; format: cell-based; conditions: PC-12, time 2-3 hrs
[26] = biological target: T1, Nuclear factor erythroid 2-related factor 2 (Rattus norvegicus); experiment: Induction of Nrf2 nuclear translocation in rat PC12 cells assessed as increase in phosphorylation of Akt pretreated with LY294002 for 2 hrs followed by compound addition at 10 uM for 2 to 3 hrs by Western blotting analysis; format: cell-based; conditions: PC-12, time 2-3 hrs
[27] = biological target: T1, Nuclear factor erythroid 2-related factor 2 (Rattus norvegicus); experiment: Inhibition of Nrf2 nuclear translocation in rat PC12 cells assessed as increase in phosphorylation of p38 MAPK pretreated with SB203580 for 2 hrs followed by compound addition at 10 uM for 2 to 3 hrs by Western blotting analysis; format: cell-based; conditions: PC-12, time 2-3 hrs
PC-12 [28] = experiment: Reversal of upregulation of HO-1 in rat PC-12 cells pretreated with U0126 for 2 hrs followed by compound addition at 10 uM for 2 to 3 hrs by Western blotting analysis; format: functional, cell-based; conditions: time 2-3 hrs
PC-12 [29] = experiment: Reversal of upregulation of HO-1 in rat PC-12 cells pretreated with SP600125 for 2 hrs followed by compound addition at 10 uM for 2 to 3 hrs by Western blotting analysis; format: functional, cell-based; conditions: time 2-3 hrs
PC-12 [30] = experiment: Reversal of upregulation of HO-1 in rat PC-12 cells pretreated with LY294002 for 2 hrs followed by compound addition at 10 uM for 2 to 3 hrs by Western blotting analysis; format: functional, cell-based; conditions: time 2-3 hrs
PC-12 [31] = experiment: Cytotoxicity in rat PC-12 cells assessed as cell viability measured at 30 uM for 24 hrs by MTT assay; format: functional, cell-based

CC1(C)Oc2c(c(O)cc3occ(-c4ccc(F)cc4F)c(=O)c23)CC1O (stereo unspecified)
Activity (PC-12 [1]): Active | Activity (PC-12 [2]): Active | Activity (PC-12 [3]): Dose-Dependent Effect | IC50 (PC-12 [4]): 4.2 µM | viability at 30 µM [5]: ≤ 79.9% | IC50 [6]: 4.7 µM | inhibition (Brain): 50.5% | Activity (PC-12 [7]): Active | Activity (PC-12 [8]): Active | Activity (PC-12 [9]): Active | Activity (PC-12 [10]): Active | Activity (PC-12 [11]): Active | Activity (PC-12 [12]): Dose-Dependent Effect | fold change (FC) (PC-12 [13]): 1.5 | Activity (PC-12 [14]): Active | Activity [15]: Active | Activity (PC-12 [16]): inactive | inhibition [17]: Active | Activity [18]: Active | Activity [19]: Active | Activity [20]: Active | Activity [21]: Active | Activity [22]: inactive | Activity [23]: inactive | Activity [24]: inactive | Activity [25]: inactive | Activity [26]: inactive | inhibition [27]: Active | Activity (PC-12 [28]): Active | Activity (PC-12 [29]): Active | Activity (PC-12 [30]): Active

CC1(C)Oc2c(c(O)cc3occ(-c4ccncc4)c(=O)c23)CC1O (stereo unspecified)
Activity (PC-12 [31]): Active

CC(C)Oc1ccc(-c2coc3cc4c(c(O)c3c2=O)C=CC(C)(C)O4)cc1
Activity (PC-12 [2]): inactive

CC1(C)Oc2c(c(O)cc3occ(-c4ccc(F)cc4)c(=O)c23)CC1O (stereo unspecified)
Activity (PC-12 [1]): Active

CC1(C)Oc2c(c(O)cc3occ(-c4cc(F)cc(F)c4)c(=O)c23)CC1O (stereo unspecified)
Activity (PC-12 [1]): Active | Activity (PC-12 [2]): inactive
